# In patent US20080234131A1, “Herbicidal Mixtures of Cinmethylin” (priority 2005, published 2008):
# Test system: LOLMG
# Experiment: Pre-emergence herbicidal trial, tank-mix incorporated into the soil, damage rated 0-100% against untreated control plots
# Assay type: in vivo, lolium multiflorum
# Protocol: The mixtures according to the invention are applied pre-emergence as tank-mix which is incorporated into the soil. The herbicidal compounds of component A) and B) are applied in the formulation in which they are present as commercially available product. […] For comparison the synergistic effect is estimated as follows: The value E at which only an additive effect of the individual active ingredients is to be expected is calculated by the method of S. R. […] This is done using the formula […] where • X=Percentage of the herbicidal action of component A) at an application rate of a; • Y=Percentage of the herbicidal action of component B) at an application rate of b; • E=expected herbicidal action of component A)+B) at rates of application a+b (in %). If the value observed exceeds the value E calculated in accordance with Colby's formula, then synergism is present.
compound,measurement,setting,value
"Cc1ccccc1CO[C@@H]1C[C@@]2(C(C)C)CC[C@]1(C)O2 [Cinmethylin, exo(+)-1-methyl-4-(1-methylethyl)-2-[(2-methylphenyl)methoxy]-7-oxabicyclo[2.2.1]heptane]",% control of LOLMG,Cinmethylin 200 g/ha solo,58%
same,% control of LOLMG,Cinmethylin 400 g/ha solo,67%
CCC(CC)Nc1c([N+](=O)[O-])cc(C)c(C)c1[N+](=O)[O-] [Pendimethalin],% control of LOLMG,Pendimethalin 600 g/ha solo,56%
CCCN(CCC)c1c([N+](=O)[O-])cc(C(F)(F)F)cc1[N+](=O)[O-] [Trifluralin],% control of LOLMG,Trifluralin 500 g/ha solo,59%
